Structures are written as SMILES.

The test system of one experiment is HCT116 cells. Kind of experiment: Growth inhibitory activity on HCT116 cell (CellTiter-Glo). It counts as cell-based. The conditions noted are these: table head: 10 μM (text b2498: 1 μM), 3 days incubation; for inhibition at 10 µM: Homo sapiens, HCT-116, 72 h, read-out: HCT116 cell proliferation inhibitory rate (%) at 10 μM. How it is done:
The growth inhibitory activity of the compound on HCT116 cell was evaluated by the following method.
HCT116 cells were seeded in a 384 well blackplate at 900 cells/30 μL/well, and maintained in an RPMI medium (Wako)) containing an assay medium (2% fetal bovine serum, 50 Unit/mL penicillin, 50 μg/mL streptomycin (Invitrogen). The next day, a test compound dissolved in dimethyl sulfoxide (DMSO) was diluted with the assay medium, and the obtained compound solution was added by 10 μL to each well of a plate containing HCT116 cells and incubated at 37° C., 5% CO2 (test compound addition group).
A similar reaction was performed without adding a test compound (test compound non-addition group).
Furthermore, a similar reaction was performed under the conditions without adding HCT116 cell and a test compound (control group).
After 3 days, 20 μL of a CellTiter-Glo reagent (Promega KK) was added to the well, and the mixture was stirred for 10 min. Thereafter, the luminescence value of each well was measured by the EnVision™ multilabel counter (Perkin Elmer Inc.).
The HCT116 cell proliferation inhibitory rate (%) of the test compound was determined by the following calculation formula. (1−(luminescence of test compound addition group−luminescence of control group)÷(luminescence of test compound nonaddition group−luminescence of control group))×100
(Cellular ATP, detected with luciferase, serves as a proxy for viable cell number.)

In the next experiment the target is T1, human ACC1 (Homo sapiens, UniProt Q13085).
T1 construct: His tag (from vector pFAST-BacHTc; protein captured on Ni-NTA) (N); made in house; host or cells: SF-9 insect cells, recombinant baculovirus BAC-ACC1
Description: Measurement of ACC1 inhibitory activity (Malonyl-CoA production, RapidFire-mass spectrometry). In kind it is biochemical. Conditions: 10 μM of the test compound, recombinant human ACC1; for inhibition at 10 µM: read-out: ACC1 inhibitory rate (%) at 10 μM. How it is done: (1) Cloning of Human ACC1 Gene and Preparation of Recombinant Baculovirus
Human ACC1 gene was cloned by PCR using a human liver cDNA library (Clontech) as a template and Primer 1 and Primer 2 shown below. Primer 1 and Primer 2 were prepared by adding SalI, NotI restriction enzyme recognition sequences based on the information of the base sequence of human ACC1 gene (Genbank Accession U19822).
PCR was performed using Pyrobest DNA polymerase (TAKARA BIO INC.). The obtained PCR product was cloned to pT7 Blue vector (Novagen) and after confirmation of the base sequence, digested with restriction enzymes SalI and XbaI. The obtained DNA fragment was inserted into pFAST-BacHTc (Invitrogen) digested with restriction enzymes SalI and XbaI to give expression plasmid ACC1/pFAST-BacHTc.
Using the expression plasmid ACC1/pFAST-BacHTc and BAC-TO-BAC Baculovirus Expression System (Invitrogen), virus stock BAC-ACC1 of recombinant Baculovirus was prepared.
(2) Preparation of ACC1 Protein
SF-9 cells (Invitrogen) were inoculated to a medium (10 L) for insect cells (Sf-900IISFM medium (Invitrogen) containing 5% fetal bovine serum (Trace), 50 mg/L Gentamicin (Wako Pure Chemical Industries, Ltd.), 0.1% Pluronic F-68 (Invitrogen)) at 1.0×10^6 cells/mL, and cultured with shaking in Wave Bioreactor (GE Healthcare) at 27° C., 20 rpm, rocking angle 10°, oxygen concentration 30%.
On day 2 of the culture, recombinant Baculovirus BAC-ACC1 was added, and the cells were cultured for 3 days. The culture medium was centrifuged at 4000×g for 10 min to give virus-infected cells. The cells were washed with phosphate buffered saline (Invitrogen) and centrifuged under the same conditions. The obtained cells were cryopreserved at −80° C.
The cryopreserved cells were thawed in ice and suspended in 800 mL of 25 mM HEPES buffer (pH 7.5) containing 10% Glycerol, 0.3 M NaCl, 1 mM EDTA, 25 mM Sodium β-Glycerophosphate and 1 mM Sodium Orthovanadate, and supplemented with Complete Protease Inhibitor (Roche). The obtained suspension was homogenized two times in a polytron homogenizer (Kinematica) at 20,000 rpm for 20 sec. The obtained cell disruption solution was clarified by centrifugation at 186,000×g for 60 min and the supernatant was passed through Ni-NTA Superflow Cartridges (5 mL) (QUIAGEN). Furthermore, it was washed with 25 mM HEPES buffer (pH 7.5) containing 20 mM Imidazole, 0.3 M NaCl, and eluted with 25 mM HEPES buffer (pH 7.5) containing 250 mM Imidazol, 0.3 M NaCl. The eluate was concentrated by Amicon Ultra-15 (Nihon Millipore K.K.) having a fraction molecular weight of 50K. The obtained concentrate was subjected to gel filtration with 50 mM HEPES buffer (pH 7.5) containing 10 mM MgCl2, 2 mM dithiothreitol, 10 mM tripotassium citrate, 0.3 M NaCl by using HiLoad 26/60 Superdex200 prep grade gel filtration column (GE Healthcare) to give ACC1. The obtained ACC1 was cryopreserved at −80° C.
(3) Measurement of ACC1 Inhibitory Activity
ACC1 obtained in the above-mentioned (2) was diluted with an enzyme reaction buffer (50 mM HEPES (pH 7.5), 10 mM MgCl2, 10 mM Tripottasium Citrate, 2 mM Dithiothreitol, 0.001% Fatty acid free BSA) to a concentration of 0.2 μg/ml, and the mixture was added to each well of a 384 well assay plate by 10 μl. A test compound dissolved in dimethyl sulfoxide (DMSO) was diluted with an enzyme reaction buffer and the resulting solution (5 μl) was added to each well. The mixture was incubated at room temperature for 60 min. Then, a substrate solution (50 mM KHCO3, 200 μM ATP, 200 μM Acetyl-CoA, 5 μl) was added to each well, and the mixture was reacted at room temperature for 30 min. The reaction was quenched by adding a reaction quenching liquid (1.3% formic acid, 0.2 μM Malonyl-^13C3-CoA) by 60 μL each to the obtained reaction mixtures (test compound addition group).
In addition, a reaction was performed in the same manner as above and without adding the test compound (test compound non-addition group). […]

Consider `CC(=O)NC(C)c1ccc2nc(N3CC(Oc4cccc(OCC5CC5)c4)C3)oc2c1` (stereo not drawn) [Example 1, N-(1-(2-(3-(3-(cyclopropylmethoxy)phenoxy)azetidin-1-yl)-1,3-benzoxazol-6-yl)ethyl)acetamide], for which, in the experiment with HCT116 cells, the “HCT116 cell proliferation inhibitory rate (%) at 10 μM” value was determined as 12%. For the same compound, the inhibition at 10 µM at human ACC1 was 100%.
For `CC(=O)NC(C)c1ccc2nc(N3CC(Oc4cccc(OCC5CC5)c4)C3)oc2c1` (stereo not drawn) [Example 1b, N-(1-(2-(3-(3-(cyclopropylmethoxy)phenoxy)azetidin-1-yl)-1,3-benzoxazol-6-yl)ethyl)acetamide], the “HCT116 cell proliferation inhibitory rate (%) at 10 μM” value with HCT116 cells came to 32%. In addition, on human ACC1 (10 µM), the “ACC1 inhibitory rate (%) at 10 μM” value worked out at 96%.
Consider `CC(=O)NC(C)c1ccc2nc(-c3ccc(Oc4cccc(OCC5CC5)c4)cc3)oc2c1` (stereo not drawn) [Example 8, N-(1-(2-(4-(3-(cyclopropylmethoxy)phenoxy)phenyl)-1,3-benzoxazol-6-yl)ethyl)acetamide], for which the inhibition at 10 µM in the experiment with HCT116 cells stood at 42%; at human ACC1 it was 95%.
On to `CC(=O)NC(C)c1ccc2nc(-c3ccc(Oc4cccc(OCC5CC5)c4)cn3)oc2c1` (stereo not drawn) [Example 9, N-(1-(2-(5-(3-(cyclopropylmethoxy)phenoxy)pyridin-2-yl)-1,3-benzoxazol-6-yl)ethyl)acetamide], for which the values for the inhibition at 10 µM in the experiment on HCT116 cells and at human ACC1 were 45% and 99%, respectively.
With `CC(=O)NC(C)c1ccc2nc(-c3ccc(Oc4cccc(OCC5CC5)c4)cn3)oc2c1` (stereo not drawn) [Example 9b, N-(1-(2-(5-(3-(cyclopropylmethoxy)phenoxy)pyridin-2-yl)-1,3-benzoxazol-6-yl)ethyl)acetamide], the “HCT116 cell proliferation inhibitory rate (%) at 10 μM” value with HCT116 cells is 29%. Further, the “ACC1 inhibitory rate (%) at 10 μM” value on human ACC1 amounted to 99%.
Consider `CCCOc1cccc(Oc2ccc(-c3nc4ccc(C(C)NC(C)=O)cc4o3)nc2)c1` (stereo not drawn) [Example 12, N-(1-(2-(5-(3-propoxyphenoxy)pyridin-2-yl)-1,3-benzoxazol-6-yl)ethyl)acetamide], for which the inhibition at 10 µM at human ACC1 was found to be 94%.
In the case of `CCCCOc1cccc(Oc2ccc(-c3nc4ccc(C(C)NC(C)=O)cc4o3)nc2)c1` (stereo not drawn) [Example 13, N-(1-(2-(5-(3-butoxyphenoxy)pyridin-2-yl)-1,3-benzoxazol-6-yl)ethyl)acetamide], the inhibition at 10 µM turned out to be 19% in the experiment with HCT116 cells and 86% at human ACC1.
Take `CCCCCc1cccc(OC2CN(c3nc4ccc(C(C)NC(C)=O)cc4o3)C2)c1` (stereo not drawn) [Example 29, N-(1-(2-(3-(3-pentylphenoxy)azetidin-1-yl)-1,3-benzoxazol-6-yl)ethyl)acetamide]: the inhibition at 10 µM on human ACC1 worked out at 82%.
Consider `CC(=O)NC(C)c1ccc2oc(-c3ccc(Oc4cccc(OCC5CC5)c4)cn3)cc2c1` (stereo not drawn) [Example 31, N-(1-(2-(5-(3-(cyclopropylmethoxy)phenoxy)pyridin-2-yl)-1-benzofuran-5-yl)ethyl)acetamide], for which the inhibition at 10 µM in the experiment on HCT116 cells worked out at 42%; at human ACC1 it was 98%.
The matching figures for `CC(=O)NC(C)c1ccc2cc(-c3ccc(Oc4cccc(OCC5CC5)c4)cn3)oc2c1` (stereo not drawn) [Example 35, N-(1-(2-(5-(3-(cyclopropylmethoxy)phenoxy)pyridin-2-yl)-1-benzofuran-6-yl)ethyl)acetamide]: 41% and 94%.
`CC(=O)NC(C)c1ccc2c(c1)CC(c1ccc(Oc3cccc(OCC4CC4)c3)cn1)O2` (stereo not drawn) [Example 36, N-(1-(2-(5-(3-(cyclopropylmethoxy)phenoxy)pyridin-2-yl)-2,3-dihydro-1-benzofuran-5-yl)ethyl)acetamide]: at human ACC1, the inhibition at 10 µM came to 100%.
On to `CC(=O)NC(C)c1ccc2c(c1)CC(c1ccc(Oc3cccc(OCC4CC4)c3)cn1)O2` (stereo not drawn) [Example 36b, N-(1-(2-(5-(3-(cyclopropylmethoxy)phenoxy)pyridin-2-yl)-2,3-dihydro-1-benzofuran-5-yl)ethyl)acetamide], for which the “ACC1 inhibitory rate (%) at 10 μM” value at human ACC1 (10 µM) was found to be 101%.
As for `CC(=O)NC(C)c1ccc2nc(-c3ccc(Oc4cccc(OCC5CC5)c4)nc3)oc2c1` (stereo not drawn) [Example 37, N-(1-(2-(6-(3-(cyclopropylmethoxy)phenoxy)pyridin-3-yl)-1,3-benzoxazol-6-yl)ethyl)acetamide], the figures for the inhibition at 10 µM in the experiment with HCT116 cells and on human ACC1 were 44% and 101%, respectively.
The matching figures for `CC(=O)NC(C)c1ccc2sc(N3CC(Oc4cccc(OCC5CC5)c4)C3)nc2c1` (stereo not drawn) [Example 44, N-(1-(2-(3-(3-(cyclopropylmethoxy)phenoxy)azetidin-1-yl)-1,3-benzothiazol-5-yl)ethyl)acetamide]: 14% and 100%.
Regarding `CC(=O)NC(C)c1ccc2nc(-c3ncc(Oc4cccc(OCC5CC5)c4)cc3C)oc2c1` (stereo not drawn) [Example 47, N-(1-(2-(5-(3-(cyclopropylmethoxy)phenoxy)-3-methylpyridin-2-yl)-1,3-benzoxazol-6-yl)ethyl)acetamide], on human ACC1, the inhibition at 10 µM came out at 82%.
For the compound `CC(=O)NC(C)c1cc2cc(-c3ccc(Oc4cccc(OCC5CC5)c4)cc3)ccc2o1` (stereo not drawn) [Example 52, N-(1-(5-(4-(3-(cyclopropylmethoxy)phenoxy)phenyl)-1-benzofuran-2-yl)ethyl)acetamide], the inhibition at 10 µM turned out to be 20% in the experiment with HCT116 cells and 94% at human ACC1.
Consider `CC(=O)NC(C)c1ccc2cn(-c3ccc(Oc4cccc(OCC5CC5)c4)cc3)nc2c1` (stereo not drawn) [Example 56, N-(1-(2-(4-(3-(cyclopropylmethoxy)phenoxy)phenyl)-2H-indazol-6-yl)ethyl)acetamide], for which the inhibition at 10 µM on human ACC1 was found to be 94%.
For the compound `CC(=O)NC(C)c1ccc2nc(-c3ccc(Oc4cccc(OCC5CC5)c4)cc3)oc2c1C` (stereo not drawn) [Example 93, N-(1-(2-(4-(3-(cyclopropylmethoxy)phenoxy)phenyl)-7-methyl-1,3-benzoxazol-6-yl)ethyl)acetamide], on human ACC1, the inhibition at 10 µM worked out at 94%.
On the same count and under the same terms, for `CC(NC(N)=O)c1ccc2nc(-c3ccc(Oc4cccc(OCC5CC5)c4)nn3)oc2c1` (stereo not drawn) [Example 110, 1-(1-(2-(6-(3-(cyclopropylmethoxy)phenoxy)pyridazin-3-yl)-1,3-benzoxazol-6-yl)ethyl)urea] the value was 98%.
